Laboratory results from patent US20260356830A1, “COMPOUNDS FOR MODULATING RET PROTEIN” (Bristol-Myers Squibb Company, priority 2022, published 2026).

Target: T1, CCDC6-RET (Homo sapiens, UniProt P07949+Q16204+Q96SW2)
T1 construct: CCDC6 (natural N-terminal fusion partner, UniProt Q16204); endogenous in cells; host or cells: TPC-1 (parental, papillary thyroid carcinoma)
Assay: Cellular RET degradation, AlphaLISA, TPC-1 cell line
Assay type: cell-based
Conditions: for Dmax: TPC1, human, 24 h, read-out: Cell Density TPC-1/CCDC6-RET Ymax %; for DC50: read-out: Cell Density TPC-1/CCDC6-RET DC50, half-maximal degradation concentration, TPC-1 (CCDC6-RET), 24 hrs
In short: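 TPC-1 papillary thyroid carcinoma cells (endogenous CCDC6-RET) in DMEM with 2% FBS, compound-treated 24 h at 37 °C. RET in lysates quantified by AlphaLISA luminescence, normalized to media-only and DMSO wells; DC50 and maximal degradation from 4-parameter logistic fit.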

T1 sequence (Q16204+P07949 fused): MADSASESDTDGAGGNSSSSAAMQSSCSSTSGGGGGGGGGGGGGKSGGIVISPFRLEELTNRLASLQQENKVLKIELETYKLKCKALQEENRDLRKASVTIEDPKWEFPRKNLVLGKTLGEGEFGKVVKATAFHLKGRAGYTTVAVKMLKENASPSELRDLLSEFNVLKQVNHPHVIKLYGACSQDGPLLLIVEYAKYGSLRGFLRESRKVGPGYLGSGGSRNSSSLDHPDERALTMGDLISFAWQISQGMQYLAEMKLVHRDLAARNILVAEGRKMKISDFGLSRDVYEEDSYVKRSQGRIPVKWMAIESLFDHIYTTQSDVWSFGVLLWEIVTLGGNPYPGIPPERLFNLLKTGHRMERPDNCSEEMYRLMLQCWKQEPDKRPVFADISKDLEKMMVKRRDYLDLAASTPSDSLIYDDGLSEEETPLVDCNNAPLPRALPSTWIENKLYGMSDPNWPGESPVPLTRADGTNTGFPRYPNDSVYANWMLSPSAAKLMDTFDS
T1 sequence (Q96SW2 whole entry, the tested form may be a part): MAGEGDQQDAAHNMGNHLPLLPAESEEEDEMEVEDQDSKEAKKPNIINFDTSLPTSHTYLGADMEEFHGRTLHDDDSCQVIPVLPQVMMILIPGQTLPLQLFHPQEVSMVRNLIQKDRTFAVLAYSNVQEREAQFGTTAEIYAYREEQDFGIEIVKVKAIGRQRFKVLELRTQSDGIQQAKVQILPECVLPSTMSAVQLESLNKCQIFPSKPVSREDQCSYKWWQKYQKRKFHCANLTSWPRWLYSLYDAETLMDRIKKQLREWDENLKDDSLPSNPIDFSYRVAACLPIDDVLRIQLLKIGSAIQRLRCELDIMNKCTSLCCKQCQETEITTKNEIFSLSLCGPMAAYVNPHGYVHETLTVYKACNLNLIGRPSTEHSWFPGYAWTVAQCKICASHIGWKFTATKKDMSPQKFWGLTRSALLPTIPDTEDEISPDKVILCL
T1 sequence (Q16531 whole entry partner, the tested form may be a part): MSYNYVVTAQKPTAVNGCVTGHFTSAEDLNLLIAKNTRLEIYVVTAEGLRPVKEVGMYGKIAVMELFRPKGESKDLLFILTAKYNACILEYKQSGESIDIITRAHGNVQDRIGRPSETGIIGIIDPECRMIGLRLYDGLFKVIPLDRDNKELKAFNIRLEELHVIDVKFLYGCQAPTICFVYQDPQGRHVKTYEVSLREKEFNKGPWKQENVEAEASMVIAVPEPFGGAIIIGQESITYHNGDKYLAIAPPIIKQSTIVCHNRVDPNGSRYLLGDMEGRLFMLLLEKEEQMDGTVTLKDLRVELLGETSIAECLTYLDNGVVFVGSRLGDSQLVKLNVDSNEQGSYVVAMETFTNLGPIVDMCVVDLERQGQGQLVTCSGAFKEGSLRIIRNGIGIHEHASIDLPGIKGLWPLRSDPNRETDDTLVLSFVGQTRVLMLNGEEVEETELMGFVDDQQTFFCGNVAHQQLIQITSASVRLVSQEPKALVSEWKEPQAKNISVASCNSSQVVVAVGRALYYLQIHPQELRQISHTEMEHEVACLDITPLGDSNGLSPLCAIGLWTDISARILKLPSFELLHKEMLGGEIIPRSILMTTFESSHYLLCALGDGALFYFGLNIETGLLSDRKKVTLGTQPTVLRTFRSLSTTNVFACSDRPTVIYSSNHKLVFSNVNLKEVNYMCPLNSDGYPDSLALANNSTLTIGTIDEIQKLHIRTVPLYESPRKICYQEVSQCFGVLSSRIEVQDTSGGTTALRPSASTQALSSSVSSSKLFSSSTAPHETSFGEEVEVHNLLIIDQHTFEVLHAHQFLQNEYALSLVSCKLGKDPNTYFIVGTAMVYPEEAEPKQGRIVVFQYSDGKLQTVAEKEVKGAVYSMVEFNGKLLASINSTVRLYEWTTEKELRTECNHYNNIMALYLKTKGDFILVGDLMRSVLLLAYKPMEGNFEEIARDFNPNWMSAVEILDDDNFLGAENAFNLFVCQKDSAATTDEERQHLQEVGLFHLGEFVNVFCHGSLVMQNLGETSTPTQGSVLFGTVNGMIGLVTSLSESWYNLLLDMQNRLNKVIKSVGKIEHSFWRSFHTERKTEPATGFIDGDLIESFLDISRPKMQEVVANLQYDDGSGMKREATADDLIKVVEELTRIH

| Dmax [%] | DC50 [µM] | SMILES |
| --- | --- | --- |
| 60 to 90 | 0.01 to 0.1 | CCOc1cc(-c2ccc(N3CCC(CN(C(=O)CCCCCCN4CCN(c5ccc6c(c5)C(=O)N(C5CCC(=O)NC5=O)C6)CC4)C(C)C)(NC(=O)c4cc(F)ccc4F)CC3)nc2)c2c(C#N)cnn2c1 (stereo not drawn) [Example 169, N-[1-(5-{3-cyano-6-ethoxypyrazolo[1,5-a]pyridin-4-yl}pyridin-2-yl)-4-[(7-{4-[2-(2,6-dioxopiperidin-3-yl)-3-oxo-2,3-dihydro-1H-isoindol-5-yl]piperazin-1-yl}-N-(propan-2-yl)heptanamido)methyl]piperidin-4-yl]-2,5-difluorobenzamide] |
| 60 to 90 | 0.1 to 2 | CCOc1cc(-c2ccc(N3CCC(CN4CCN(C(=O)CCCCCCCCCCCCCCNC(=O)COc5cccc6c5CN(C5CCC(=O)NC5=O)C6=O)CC4)(NC(=O)c4cc(F)ccc4F)CC3)nc2)c2c(C#N)cnn2c1 (stereo not drawn) [Example 30, N-[1-(5-{3-cyano-6-ethoxypyrazolo[1,5-a]pyridin-4-yl}pyridin-2-yl)-4-({4-[15-(2-{[2-(2,6-dioxopiperidin-3-yl)-1-oxo-2,3-dihydro-1H-isoindol-4-yl]oxy}acetamido)pentadecanoyl]piperazin-1-yl}methyl)piperidin-4-yl]-2,5-difluorobenzamide] |
| 60 to 90 | 0.002 to 0.01 | CCOc1cc(-c2ccc(N3CCC(CN4CCN(C(=O)CCCCCCNC(=O)COc5cccc6c5CN(C5CCC(=O)NC5=O)C6=O)CC4)(NC(=O)c4cc(F)ccc4F)CC3)nc2)c2c(C#N)cnn2c1 (stereo not drawn) [Example 27, N-[1-(5-{3-cyano-6-ethoxypyrazolo[1,5-a]pyridin-4-yl}pyridin-2-yl)-4-({4-[7-(2-{[2-(2,6-dioxopiperidin-3-yl)-1-oxo-2,3-dihydro-1H-isoindol-4-yl]oxy}acetamido)heptanoyl]piperazin-1-yl}methyl)piperidin-4-yl]-2,5-difluorobenzamide] |
| 60 to 90 | 0.002 to 0.01 | CCOc1cc(-c2ccc(N3CCC(NC(=O)c4cc(F)ccc4F)(C(=O)NCCCCCCNc4ccc(N5CCC(=O)NC5=O)cc4)CC3)nc2)c2c(C#N)cnn2c1 [Example 148, 1-(5-{3-cyano-6-ethoxypyrazolo[1,5-a]pyridin-4-yl}pyridin-2-yl)-4-(2,5-difluorobenzamido)-N-(6-{[4-(2,4-dioxo-1,3-diazinan-1-yl)phenyl]amino}hexyl)piperidine-4-carboxamide] |
| 60 to 90 | 0.01 to 0.1 | CCOc1cc(-c2ccc(N3CCC(CN4CCN(C(=O)CCCCCCNc5cccc(NC6CCC(=O)NC6=O)c5)CC4)(NC(=O)c4cc(F)ccc4F)CC3)nc2)c2c(C#N)cnn2c1 (stereo not drawn) [Example 22, N-[1-(5-{3-cyano-6-ethoxypyrazolo[1,5-a]pyridin-4-yl}pyridin-2-yl)-4-({4-[7-({3-[(2,6-dioxopiperidin-3-yl)amino]phenyl}amino)heptanoyl]piperazin-1-yl}methyl)piperidin-4-yl]-2,5-difluorobenzamide] |
| 60 to 90 | 0.002 to 0.01 | CCOc1cc(-c2ccc(N3CCC(CN4CCN(C(=O)CCCN5CCN(c6ccc7c(c6)CN(C6CCC(=O)NC6=O)C7=O)CC5)CC4)(NC(=O)c4cc(F)ccc4F)CC3)nc2)c2c(C#N)cnn2c1 (stereo not drawn) [Example 14, N-(1-(5-(3-cyano-6-ethoxypyrazolo[1,5-a]pyridin-4-yl)pyridin-2-yl)-4-((4-(4-(4-(2-(2,6-dioxopiperidin-3-yl)-1-oxoisoindolin-5-yl)piperazin-1-yl)butanoyl)piperazin-1-yl)methyl)piperidin-4-yl)-2,5-difluorobenzamide] |

The next lines start with the compound.

| SMILES | Dmax [%] | DC50 [µM] |
| --- | --- | --- |
| CCOc1cc(-c2ccc(N3CCC(CN4CCN(C(=O)CCOCCN5CCN(c6ccc7c(c6)CN(C6CCC(=O)NC6=O)C7=O)CC5)CC4)(NC(=O)c4cc(F)ccc4F)CC3)nc2)c2c(C#N)cnn2c1 (stereo not drawn) [Example 104, N-[1-(5-{3-cyano-6-ethoxypyrazolo[1,5-a]pyridin-4-yl}pyridin-2-yl)-4-({4-[3-(2-{4-[2-(2,6-dioxopiperidin-3-yl)-1-oxo-2,3-dihydro-1H-isoindol-5-yl]piperazin-1-yl}ethoxy)propanoyl]piperazin-1-yl}methyl)piperidin-4-yl]-2,5-difluorobenzamide] | 60 to 90 | 0.002 to 0.01 |
| CCOc1cc(-c2ccc(N3CCC(NC(=O)c4cc(F)ccc4F)(C(=O)NCCCCCCN4CCC(c5ccc6c(c5)CN(C5CCC(=O)NC5=O)C6=O)CC4)CC3)nc2)c2c(C#N)cnn2c1 (stereo not drawn) [Example 157, 1-(5-{3-cyano-6-ethoxypyrazolo[1,5-a]pyridin-4-yl}pyridin-2-yl)-4-(2,5-difluorobenzamido)-N-(6-{4-[2-(2,6-dioxopiperidin-3-yl)-1-oxo-2,3-dihydro-1H-isoindol-5-yl]piperidin-1-yl}hexyl)piperidine-4-carboxamide] | > 90 | 0.002 to 0.01 |
| CCOc1cc(-c2ccc(N3CCC(COCCN4CCN(C(=O)CCN5CCN(c6ccc7c(c6)CN(C6CCC(=O)NC6=O)C7=O)CC5)CC4)(NC(=O)c4cc(F)ccc4F)CC3)nc2)c2c(C#N)cnn2c1 (stereo not drawn) [Example 34, N-[1-[5-(3-cyano-6-ethoxy-pyrazolo[1,5-a]pyridin-4-yl)-2-pyridyl]-4-[2-[4-[3-[4-[2-(2,6-dioxo-3-piperidyl)-1-oxo-isoindolin-5-yl]piperazin-1-yl]propanoyl]piperazin-1-yl]ethoxymethyl]-4-piperidyl]-2,5-difluoro-benzamide] | > 90 | 0.01 to 0.1 |
| CCOc1cc(-c2ccc(N3CCC(CN4CCN(C(=O)C5CC6(CC(Nc7ccc8c(N9CCC(=O)NC9=O)nn(C)c8c7)C6)C5)CC4)(NC(=O)c4cc(F)ccc4F)CC3)nc2)c2c(C#N)cnn2c1 (stereo not drawn) [Example 93, N-[1-(5-{3-cyano-6-ethoxypyrazolo[1,5-a]pyridin-4-yl}pyridin-2-yl)-4-{[4-(6-{[3-(2,4-dioxo-1,3-diazinan-1-yl)-1-methyl-1H-indazol-6-yl]amino}spiro[3.3]heptane-2-carbonyl)piperazin-1-yl]methyl}piperidin-4-yl]-2,5-difluorobenzamide] | > 90 | 0.002 to 0.01 |
| CCOc1cc(-c2ccc(N3CCC(COCCN4CCN(C(=O)CCN5CCC(c6ccc7c(c6)C(=O)N(C6CCC(=O)NC6=O)C7)CC5)CC4)(NC(=O)c4cc(F)ccc4F)CC3)nc2)c2c(C#N)cnn2c1 (stereo not drawn) [Example 32, N-[1-[5-(3-cyano-6-ethoxy-pyrazolo[1,5-a]pyridin-4-yl)-2-pyridyl]-4-[2-[4-[3-[4-[2-(2,6-dioxo-3-piperidyl)-3-oxo-isoindolin-5-yl]-1-piperidyl]propanoyl]piperazin-1-yl]ethoxymethyl]-4-piperidyl]-2,5-difluoro-benzamide] | 60 to 90 | 0.01 to 0.1 |
| CCOc1cc(-c2ccc(N3CCC(CN4CCN(C5CC6(CC(C(=O)N7CCN(c8ccc9c(c8)CN(C8CCC(=O)NC8=O)C9=O)CC7)C6)C5)CC4)(NC(=O)c4cc(F)ccc4F)CC3)nc2)c2c(C#N)cnn2c1 (stereo not drawn) [Example 94, N-[1-(5-{3-cyano-6-ethoxypyrazolo[1,5-a]pyridin-4-yl}pyridin-2-yl)-4-{[4-(6-{4-[2-(2,6-dioxopiperidin-3-yl)-1-oxo-2,3-dihydro-1H-isoindol-5-yl]piperazine-1-carbonyl}spiro[3.3]heptan-2-yl)piperazin-1-yl]methyl}piperidin-4-yl]-2,5-difluorobenzamide] | 60 to 90 | 0.002 to 0.01 |
